Experiments:
Test in all cases: radiometric filter-binding kinase assay, Kinase HotSpot
Details in all cases: compound 0.5 µM; ATP 10 µM
DAPK1 (human) = DAPK1 (human) (UniProt P53355)
PIM3 (human) = PIM3 (human) (UniProt Q86V86)
IKBKB (human) = IKBKB (human) (UniProt O14920)
CDK1 CCNA2 (human) = CDK1 CCNA2 (human) (UniProt P06493+P20248)
CAMK4 (human) = CAMK4 (human) (UniProt Q16566)
IKBKE (human) = IKBKE (human) (UniProt Q14164)
PAK2 (human) = PAK2 (human) (UniProt Q13177)
TEC (human) = TEC (human) (UniProt P42680)
MAPK12 (human) = MAPK12 (human) (UniProt P53778)
Sequence of MAPK12 (human) (P53778 whole entry, looked up): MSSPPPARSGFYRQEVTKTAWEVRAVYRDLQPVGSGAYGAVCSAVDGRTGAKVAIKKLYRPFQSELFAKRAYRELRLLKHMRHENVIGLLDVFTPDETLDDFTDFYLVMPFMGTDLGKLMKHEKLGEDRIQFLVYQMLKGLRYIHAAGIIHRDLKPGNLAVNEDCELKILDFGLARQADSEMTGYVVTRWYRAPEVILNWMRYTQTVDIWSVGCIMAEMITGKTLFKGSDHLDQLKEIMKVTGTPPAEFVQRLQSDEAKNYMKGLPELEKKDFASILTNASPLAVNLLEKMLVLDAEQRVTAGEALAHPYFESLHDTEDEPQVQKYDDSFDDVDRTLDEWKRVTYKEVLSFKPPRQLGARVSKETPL

CSNK2A1 (human) = CSNK2A1 (human) (UniProt P68400)
PAK4 (human) = PAK4 (human) (UniProt O96013)
CSK (human) = CSK (human) (UniProt P41240)
BTK (human) = BTK (human) (UniProt Q06187)
NEK2 (human) = NEK2 (human) (UniProt P51955)
FES (human) = FES (human) (UniProt P07332)
RAF1 (human) = RAF1 (human) (UniProt P04049)
STK3 (human) = STK3 (human) (UniProt Q13188)
FLT1 (human) = FLT1 (human) (UniProt P17948)
Sequence of FLT1 (human) (P17948 whole entry, looked up): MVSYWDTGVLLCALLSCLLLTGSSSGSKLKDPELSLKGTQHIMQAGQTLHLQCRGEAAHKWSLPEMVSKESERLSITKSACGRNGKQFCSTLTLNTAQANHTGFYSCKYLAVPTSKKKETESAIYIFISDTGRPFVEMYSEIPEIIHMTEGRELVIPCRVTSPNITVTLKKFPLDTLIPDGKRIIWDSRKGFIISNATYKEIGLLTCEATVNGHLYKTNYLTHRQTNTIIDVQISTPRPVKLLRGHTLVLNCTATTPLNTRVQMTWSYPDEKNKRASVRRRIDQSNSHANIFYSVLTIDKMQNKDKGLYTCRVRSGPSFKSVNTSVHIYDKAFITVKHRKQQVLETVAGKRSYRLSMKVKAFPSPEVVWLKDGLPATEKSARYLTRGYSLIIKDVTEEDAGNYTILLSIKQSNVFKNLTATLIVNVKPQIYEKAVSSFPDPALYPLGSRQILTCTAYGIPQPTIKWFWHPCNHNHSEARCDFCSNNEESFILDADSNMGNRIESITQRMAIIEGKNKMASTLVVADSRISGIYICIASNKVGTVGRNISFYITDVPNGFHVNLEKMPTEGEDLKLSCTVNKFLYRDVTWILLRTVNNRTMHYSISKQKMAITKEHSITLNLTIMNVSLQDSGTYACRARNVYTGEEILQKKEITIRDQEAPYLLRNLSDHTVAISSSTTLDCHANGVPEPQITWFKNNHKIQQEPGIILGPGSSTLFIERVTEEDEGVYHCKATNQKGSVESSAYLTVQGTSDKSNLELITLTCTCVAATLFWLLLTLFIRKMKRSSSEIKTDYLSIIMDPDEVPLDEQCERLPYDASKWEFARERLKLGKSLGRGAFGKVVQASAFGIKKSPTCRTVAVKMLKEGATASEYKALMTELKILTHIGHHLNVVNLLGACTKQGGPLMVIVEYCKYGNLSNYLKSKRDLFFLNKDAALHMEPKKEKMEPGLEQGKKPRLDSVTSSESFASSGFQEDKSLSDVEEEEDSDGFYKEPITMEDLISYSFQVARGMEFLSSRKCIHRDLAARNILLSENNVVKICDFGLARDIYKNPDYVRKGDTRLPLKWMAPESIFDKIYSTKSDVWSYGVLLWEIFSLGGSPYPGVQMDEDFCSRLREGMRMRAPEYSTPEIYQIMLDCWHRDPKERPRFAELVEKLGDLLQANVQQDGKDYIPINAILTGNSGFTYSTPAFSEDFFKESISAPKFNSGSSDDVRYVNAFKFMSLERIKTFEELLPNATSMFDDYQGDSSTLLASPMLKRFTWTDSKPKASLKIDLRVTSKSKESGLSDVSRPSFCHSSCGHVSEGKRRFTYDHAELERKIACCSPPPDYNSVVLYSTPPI

SGK3 (human) = SGK3 (human) (UniProt Q96BR1)
Sequence of SGK3 (human) (Q96BR1 whole entry, looked up): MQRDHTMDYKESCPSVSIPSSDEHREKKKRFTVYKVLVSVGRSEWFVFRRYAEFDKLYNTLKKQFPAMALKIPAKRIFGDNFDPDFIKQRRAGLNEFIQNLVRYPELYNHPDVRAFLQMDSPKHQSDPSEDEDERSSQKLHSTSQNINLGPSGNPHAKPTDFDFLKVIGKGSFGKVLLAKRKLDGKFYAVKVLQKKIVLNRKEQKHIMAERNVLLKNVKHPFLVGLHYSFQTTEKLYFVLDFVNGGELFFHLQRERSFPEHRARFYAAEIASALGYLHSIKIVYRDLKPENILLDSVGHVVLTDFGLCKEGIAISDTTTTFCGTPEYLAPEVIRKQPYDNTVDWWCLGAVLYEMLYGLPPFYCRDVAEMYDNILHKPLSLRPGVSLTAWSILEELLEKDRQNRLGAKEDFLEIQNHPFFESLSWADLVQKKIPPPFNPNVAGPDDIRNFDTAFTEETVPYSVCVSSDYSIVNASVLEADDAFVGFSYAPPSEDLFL

WEE1 (human) = WEE1 (human) (UniProt P30291)
EPHB1 (human) = EPHB1 (human) (UniProt P54762)
CAMK1G (human) = CAMK1G (human) (UniProt Q96NX5)
ZAP70 (human) = ZAP70 (human) (UniProt P43403)
RET (human) = RET (human) (UniProt P07949)
MAPK14 (human) = MAPK14 (human) (UniProt Q16539)
KDR (human) = KDR (human) (UniProt P35968)
PAK7 (human) = PAK7 (human) (UniProt Q9P286)
MAPK1 (human) = MAPK1 (human) (UniProt P28482)
NTRK2 (human) = NTRK2 (human) (UniProt Q16620)
SYK (human) = SYK (human) (UniProt P43405)
HIPK4 (human) = HIPK4 (human) (UniProt Q8NE63)
ACVR1B (human) = ACVR1B (human) (UniProt P36896)
PRKCB2 (human) = PRKCB2 (human) (UniProt P05771)
Sequence of PRKCB2 (human) (P05771 whole entry, looked up): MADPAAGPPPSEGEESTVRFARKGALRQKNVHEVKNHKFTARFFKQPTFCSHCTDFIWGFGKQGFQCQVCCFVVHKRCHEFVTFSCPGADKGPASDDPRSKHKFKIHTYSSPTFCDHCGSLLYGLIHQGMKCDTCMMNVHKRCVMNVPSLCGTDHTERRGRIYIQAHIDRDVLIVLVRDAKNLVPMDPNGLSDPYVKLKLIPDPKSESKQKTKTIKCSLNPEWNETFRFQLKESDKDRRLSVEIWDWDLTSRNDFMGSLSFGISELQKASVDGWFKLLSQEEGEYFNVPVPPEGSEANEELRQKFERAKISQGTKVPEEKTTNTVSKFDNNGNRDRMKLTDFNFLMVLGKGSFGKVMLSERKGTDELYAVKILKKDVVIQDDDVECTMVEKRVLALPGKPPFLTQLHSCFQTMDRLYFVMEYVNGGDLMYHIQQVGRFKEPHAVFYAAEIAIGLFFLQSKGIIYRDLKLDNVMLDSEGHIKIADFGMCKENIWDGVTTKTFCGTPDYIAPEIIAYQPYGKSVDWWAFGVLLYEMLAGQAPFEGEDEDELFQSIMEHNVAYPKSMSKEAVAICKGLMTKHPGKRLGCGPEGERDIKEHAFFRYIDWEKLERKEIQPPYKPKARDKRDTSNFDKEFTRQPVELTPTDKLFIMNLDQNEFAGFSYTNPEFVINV

AURKA (human) = AURKA (human) (UniProt O14965)
TEK (human) = TEK (human) (UniProt Q02763)
NTRK3 (human) = NTRK3 (human) (UniProt Q16288)
Sequence of NTRK3 (human) (Q16288 whole entry, looked up): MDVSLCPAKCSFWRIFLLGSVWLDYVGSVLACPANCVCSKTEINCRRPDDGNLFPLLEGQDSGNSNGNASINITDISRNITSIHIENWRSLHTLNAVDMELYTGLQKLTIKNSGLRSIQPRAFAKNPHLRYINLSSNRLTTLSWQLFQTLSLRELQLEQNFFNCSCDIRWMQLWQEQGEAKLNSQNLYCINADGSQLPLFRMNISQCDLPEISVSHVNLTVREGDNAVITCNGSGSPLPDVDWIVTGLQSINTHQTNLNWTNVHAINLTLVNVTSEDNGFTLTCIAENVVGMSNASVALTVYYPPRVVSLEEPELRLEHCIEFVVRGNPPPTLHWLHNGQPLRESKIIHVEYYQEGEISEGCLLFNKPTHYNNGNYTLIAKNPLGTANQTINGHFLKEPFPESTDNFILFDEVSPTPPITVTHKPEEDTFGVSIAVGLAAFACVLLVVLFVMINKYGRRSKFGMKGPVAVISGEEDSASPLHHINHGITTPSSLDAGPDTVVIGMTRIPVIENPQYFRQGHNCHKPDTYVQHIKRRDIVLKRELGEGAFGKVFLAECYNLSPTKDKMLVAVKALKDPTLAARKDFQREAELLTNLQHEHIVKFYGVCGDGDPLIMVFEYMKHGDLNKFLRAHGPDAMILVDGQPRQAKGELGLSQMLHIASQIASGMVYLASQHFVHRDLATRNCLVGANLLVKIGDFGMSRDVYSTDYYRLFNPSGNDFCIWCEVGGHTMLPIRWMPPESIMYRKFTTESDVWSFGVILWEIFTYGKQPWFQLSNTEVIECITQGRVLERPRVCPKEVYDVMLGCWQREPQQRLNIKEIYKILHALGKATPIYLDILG

GRK4 (human) = GRK4 (human) (UniProt P32298)
IRAK4 (human) = IRAK4 (human) (UniProt Q9NWZ3)
RPS6KA3 KD1 KD2 (human) = RPS6KA3 KD1 KD2 (human) (UniProt P51812)
PRKCI (human) = PRKCI (human) (UniProt P41743)
Sequence of PRKCI (human) (P41743 whole entry, looked up): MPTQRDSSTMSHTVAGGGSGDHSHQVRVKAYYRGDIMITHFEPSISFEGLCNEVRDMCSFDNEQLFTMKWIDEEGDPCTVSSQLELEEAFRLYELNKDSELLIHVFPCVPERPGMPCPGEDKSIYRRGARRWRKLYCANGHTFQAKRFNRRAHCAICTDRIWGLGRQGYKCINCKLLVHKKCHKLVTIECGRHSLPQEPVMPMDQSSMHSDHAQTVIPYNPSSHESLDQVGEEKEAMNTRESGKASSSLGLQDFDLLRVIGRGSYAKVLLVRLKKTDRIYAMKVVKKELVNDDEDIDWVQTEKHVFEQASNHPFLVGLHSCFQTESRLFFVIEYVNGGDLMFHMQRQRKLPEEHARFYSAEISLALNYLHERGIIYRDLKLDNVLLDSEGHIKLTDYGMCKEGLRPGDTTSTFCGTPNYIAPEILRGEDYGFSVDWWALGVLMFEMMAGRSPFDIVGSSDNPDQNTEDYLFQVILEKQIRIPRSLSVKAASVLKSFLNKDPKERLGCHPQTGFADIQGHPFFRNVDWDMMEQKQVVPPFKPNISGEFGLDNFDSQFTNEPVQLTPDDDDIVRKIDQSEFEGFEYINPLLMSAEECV

MAP4K5 (human) = MAP4K5 (human) (UniProt Q9Y4K4)
ULK1 (human) = ULK1 (human) (UniProt O75385)

Sequence of CAMK4 (human) (Q16566 whole entry, looked up): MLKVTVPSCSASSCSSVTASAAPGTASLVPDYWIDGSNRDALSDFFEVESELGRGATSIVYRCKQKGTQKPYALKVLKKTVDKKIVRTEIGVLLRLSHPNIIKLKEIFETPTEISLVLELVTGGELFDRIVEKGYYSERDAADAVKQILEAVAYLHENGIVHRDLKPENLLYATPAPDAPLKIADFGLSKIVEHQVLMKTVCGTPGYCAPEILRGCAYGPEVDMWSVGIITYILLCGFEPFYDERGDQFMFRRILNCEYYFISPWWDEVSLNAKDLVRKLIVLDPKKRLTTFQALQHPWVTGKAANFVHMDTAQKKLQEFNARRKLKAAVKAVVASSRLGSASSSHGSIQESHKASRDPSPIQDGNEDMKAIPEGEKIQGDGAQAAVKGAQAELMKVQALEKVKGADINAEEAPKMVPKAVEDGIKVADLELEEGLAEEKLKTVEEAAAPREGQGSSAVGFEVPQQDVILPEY

`NC(=O)c1cccc(-c2cc(Nc3ccc(OC(F)(F)F)cc3)ncn2)c1` was tested, and the residual activity (DAPK1 (human)) was 81.1%, the residual activity (PIM3 (human)) was 88.6% and the residual activity (IKBKB (human)) was 98.6%. For the same molecule, the residual activity (CDK1 CCNA2 (human)) was 103%, the residual activity (CAMK4 (human)) was 90.5% and the residual activity (IKBKE (human)) was 107%. The residual activity (PAK2 (human)) was 106%, the residual activity (TEC (human)) was 139% and the residual activity (MAPK12 (human)) was 111%. For the same molecule, the residual activity (CSNK2A1 (human)) was 94.6%, the residual activity (PAK4 (human)) was 94.6% and the residual activity (CSK (human)) was 104%. The residual activity (BTK (human)) was 99.1%, the residual activity (NEK2 (human)) was 95.6% and the residual activity (FES (human)) was 96.3%. It also gave a residual activity (RAF1 (human)) of 105%, a residual activity (STK3 (human)) of 93.6% and a residual activity (FLT1 (human)) of 98.4%. It also gave a residual activity (SGK3 (human)) of 104%, a residual activity (WEE1 (human)) of 98.9% and a residual activity (EPHB1 (human)) of 105%. For the same molecule, the residual activity (CAMK1G (human)) was 98.1%, the residual activity (ZAP70 (human)) was 97.1% and the residual activity (RET (human)) was 105%. It also gave a residual activity (MAPK14 (human)) of 92%, a residual activity (KDR (human)) of 99.8% and a residual activity (PAK7 (human)) of 88.1%. For the same molecule, the residual activity (MAPK1 (human)) was 96.6%, the residual activity (NTRK2 (human)) was 96% and the residual activity (SYK (human)) was 99.9%. For the same molecule, the residual activity (HIPK4 (human)) was 101%, the residual activity (ACVR1B (human)) was 103% and the residual activity (PRKCB2 (human)) was 122%. For the same molecule, the residual activity (AURKA (human)) was 107%, the residual activity (TEK (human)) was 94.2% and the residual activity (NTRK3 (human)) was 92.7%. For the same molecule, the residual activity (GRK4 (human)) was 94.8%, the residual activity (IRAK4 (human)) was 159% and the residual activity (RPS6KA3 KD1 KD2 (human)) was 101%. For the same molecule, the residual activity (PRKCI (human)) was 99.6%, the residual activity (MAP4K5 (human)) was 97.8% and the residual activity (ULK1 (human)) was 97.5%.
With `CN(C)CCCn1cc(C2=C(c3c[nH]c4ccccc34)C(=O)NC2=O)c2ccccc21` the residual activity (DAPK1 (human)) was 87.9%, the residual activity (PIM3 (human)) was 1.9% and the residual activity (IKBKB (human)) was 119%. For the same molecule, the residual activity (CDK1 CCNA2 (human)) was 100%, the residual activity (CAMK4 (human)) was 89.5% and the residual activity (IKBKE (human)) was 89.4%. For the same molecule, the residual activity (PAK2 (human)) was 96.2%, the residual activity (TEC (human)) was 116% and the residual activity (MAPK12 (human)) was 95.9%. For the same molecule, the residual activity (CSNK2A1 (human)) was 99.5%, the residual activity (PAK4 (human)) was 93.6% and the residual activity (CSK (human)) was 97%. It also gave a residual activity (BTK (human)) of 93.8%, a residual activity (NEK2 (human)) of 96.2% and a residual activity (FES (human)) of 90.9%. The residual activity (RAF1 (human)) was 118%, the residual activity (STK3 (human)) was 44.2% and the residual activity (FLT1 (human)) was 78.1%. The residual activity (SGK3 (human)) was 72.8%, the residual activity (WEE1 (human)) was 101% and the residual activity (EPHB1 (human)) was 87.4%. It also gave a residual activity (CAMK1G (human)) of 97.4%, a residual activity (ZAP70 (human)) of 93% and a residual activity (RET (human)) of 93.4%. For the same molecule, the residual activity (MAPK14 (human)) was 90.7%, the residual activity (KDR (human)) was 65.5% and the residual activity (PAK7 (human)) was 92.8%. The residual activity (MAPK1 (human)) was 100%, the residual activity (NTRK2 (human)) was 55.8% and the residual activity (SYK (human)) was 90%. For the same molecule, the residual activity (HIPK4 (human)) was 113%, the residual activity (ACVR1B (human)) was 106% and the residual activity (PRKCB2 (human)) was 12.6%. For the same molecule, the residual activity (AURKA (human)) was 108%, the residual activity (TEK (human)) was 99.7% and the residual activity (NTRK3 (human)) was 20.2%. It also gave a residual activity (GRK4 (human)) of 84.5%, a residual activity (IRAK4 (human)) of 135% and a residual activity (RPS6KA3 KD1 KD2 (human)) of 2.47%. For the same molecule, the residual activity (PRKCI (human)) was 55.9%, the residual activity (MAP4K5 (human)) was 68.5% and the residual activity (ULK1 (human)) was 84.7%.
